Results taken from ChEMBL document CHEMBL4004792, “Monascustin, an Unusual γ-Lactam from Red Yeast Rice” (J Nat Prod, 2017).
The source made the active and inactive calls. The rule behind the calls is not given here.

What was measured:
A2780 = test: Cytotoxicity against human A2780 cells at 10 uM after 24 hrs by MTT assay; type: functional, cell-based
Peritoneal macrophage = test: Inhibition of LPS-stimulated TNFalpha secretion in C57BL6J mouse peritoneal macrophages at 50 uM after 24 hrs; type: functional, cell-based
Histone deacetylase 1 = Histone deacetylase 1 (Homo sapiens, UniProt Q13547); test: Inhibition of human HDAC1 using H3(1-21)K9 after 60 mins by fluorescence assay
BGC-823 = test: Cytotoxicity against human BGC823 cells at 10 uM after 24 hrs by MTT assay; type: functional, cell-based
HCT-8 = test: Cytotoxicity against human HCT8 cells at 10 uM after 24 hrs by MTT assay; type: functional, cell-based
A549 = test: Cytotoxicity against human A549 cells at 10 uM after 24 hrs by MTT assay; type: functional, cell-based
Bel-7402 = test: Cytotoxicity against human Bel7402 cells at 10 uM after 24 hrs by MTT assay; type: functional, cell-based

Chain of Histone deacetylase 1 (Q13547 whole entry): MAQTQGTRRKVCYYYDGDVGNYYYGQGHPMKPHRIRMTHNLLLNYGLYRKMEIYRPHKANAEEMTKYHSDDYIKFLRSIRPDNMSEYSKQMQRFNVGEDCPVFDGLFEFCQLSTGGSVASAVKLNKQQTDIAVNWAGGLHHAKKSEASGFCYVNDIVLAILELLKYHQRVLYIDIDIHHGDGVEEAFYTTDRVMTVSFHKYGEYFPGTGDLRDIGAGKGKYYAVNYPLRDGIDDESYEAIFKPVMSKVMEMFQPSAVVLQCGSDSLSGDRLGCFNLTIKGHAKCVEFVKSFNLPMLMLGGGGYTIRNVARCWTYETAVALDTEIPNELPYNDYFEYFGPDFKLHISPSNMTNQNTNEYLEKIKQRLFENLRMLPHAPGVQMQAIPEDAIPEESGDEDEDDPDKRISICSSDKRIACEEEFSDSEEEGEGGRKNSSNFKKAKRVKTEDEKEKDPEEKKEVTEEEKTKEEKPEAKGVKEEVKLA

IC50 (Histone deacetylase 1): 3.7 µM
SMILES: CC(C)C[C@@]1(C(N)=O)NC(=O)C[C@]1(C)O
Activity (A2780): inactive
inhibition (Peritoneal macrophage): inactive
Activity (BGC-823): inactive
Activity (HCT-8): inactive
Activity (A549): inactive
Activity (Bel-7402): inactive
